Source: PubChem BioAssay AID2060507 (Molecular Pharmacology Branch, DTP, NCI, 2025)

System: 519858-162-T-J1-PDC complex spheroid viability
Test: Anticancer human tumor 519858-162-T-J1-PDC patient-derived colon adenocarcinoma cell line growth inhibition [GQUAD]
Conditions: for IC50: curve of first compound; for viability, T/C: stronger effect = lower value
From the text: DNA G-quadruplex Stabilizer Agents in Combinations in Complex Spheroids
A high-throughput screen of multi-cell type tumor spheroids was designed to identify active combinations of DNA G-quadruplex stabilizer agents and targeted small molecules. Complex spheroids include a stromal component modeled by human endothelial cells (HUVEC) and fibroblasts modeled by human mesenchymal stem cells (MSCs). The concentration ranges selected for each drug and investigational agent were based upon clinically achievable concentrations if the clinical Cmax of the agent was known.
Compounds. The drugs and investigational agents: pidnarulex (CX-5461; NSC782164), APTO-253 (NSC789042), BRACO-19 (NSC847499), peposertib (NSC802822), ceralasertib (NSC780249), elimusertib (NSC800525), camonsertib (NSC841442), AZD-1390 (NSC803789), olaparib (NSC753686), talazoparib (NSC767125), ART-558 (NSC835418), sotorasib (NSC818433), MRTX-1133 (NSC836407), SN-38 (NSC673596), topotecan (NSC609699), etoposide (NSC141540), doxorubicin (NSC123127), gemcitabine (NSC613327), 5-fluorouracil (NSC19893), paclitaxel (NSC125973), vemurafenib (NSC761431), panobinostat (NSC761190), R-306465 (JNJ-16241199; NSC773264), adavosertib (NSC754352), TP-3654 (NSC805149), carboplatin (NSC241240), KSQ-4279 (NSC840948), and staurosporine (NSC755774) were obtained from the National Cancer Institute (NCI) Developmental Therapeutics Program Chemical Repository (34). The FDA-approved anticancer drug set is available from the NCI Developmental Therapeutics Program. […] The stock solutions were prepared in dimethyl sulfoxide (DMSO, Sigma-Aldrich, St. Louis, MO, cat. D2650) at 800-fold the tested concentration and stored at -70 degrees C prior to their use. All drugs and investigational agents were tested over a range starting from a high concentration at or near the clinical Cmax and decreasing in half-log increments. If the clinical Cmax for an agent had not been determined, the highest concentration tested was 10 microM.
2.3 Cell Culture. All cells were maintained in an incubator at 37 degrees C and 5% CO2 with 95% humidity. The PDC lines were cultured according to standard operating procedures established by the NCI PDMR. All PDCs were thawed and cultured in Matrigel-coated flasks prepared with a working solution of 1X Ham's F-12 nutrient mix, without supplementation (Invitrogen, cat. 11765054), 100 U/mL penicillin-streptomycin (Invitrogen, cat. 15140122), and 2.5% Matrigel (Corning Inc., cat. 354248) for the first three passages. The 857933-349-R-J2-PDC line was cultured in 6C/Colon 1B media, which includes advanced DMEM/F-12 (Thermo Fisher Scientific, cat. 12634028), 10 mM HEPES (Thermo Fisher Scientific, cat. 15630080), 1X GlutaMAX supplement (Thermo Fisher Scientific, cat. 35050061), 0.1 mg/mL primocin (InvivoGen, cat. ant-pm-2), 10% defined fetal bovine serum, heat inactivated (HyClone Laboratories Inc., cat. SH30070.03HI), 50% L-WRN conditioned media (ATCC, cat. CRL-3276), 1.25 mM N-Acetyl-L-cysteine (Sigma-Aldrich, cat. A9165), 10 mM nicotinamide (Sigma-Aldrich, cat. N0636), 1X B-27 supplement (Thermo Fisher Scientific, cat. 17504044), 1X N-2 supplement (Thermo Fisher Scientific, cat. 17502048), 10 microM Y-27632 dihydrochloride (Tocris Bioscience, cat. 1254), and 50 ng/mL human EGF recombinant protein (Thermo Fisher Scientific, cat. PHG0311). The 485176-168-R4-J1-PDC line was cultured in Panc media, which includes all 6C/Colon 1B media components plus 100 ng/mL human FGF-10 (Thermo Fisher Scientific, cat. 100-26), 500 nM SB-431542 (Selleckchem, cat. S1067), and gastrin (Tocris, cat. 3006).
[…]

[1] = second compound 0.0316 µM, first compound 0.0316 µM
[2] = second compound 0.0316 µM, first compound 0.1 µM
[3] = second compound 0.0316 µM, first compound 0.316 µM
[4] = second compound 0.0316 µM, first compound 1 µM
[5] = second compound 0.0316 µM, first compound 3.16 µM
[6] = second compound 0.0316 µM, first compound 10 µM
[7] = second compound 0.1 µM, first compound 0.0316 µM
[8] = second compound 0.1 µM, first compound 0.1 µM
[9] = second compound 0.1 µM, first compound 0.316 µM
[10] = second compound 0.1 µM, first compound 1 µM
[11] = second compound 0.1 µM, first compound 3.16 µM
[12] = second compound 0.1 µM, first compound 10 µM
[13] = second compound 0.316 µM, first compound 0.0316 µM
[14] = second compound 0.316 µM, first compound 0.1 µM
[15] = second compound 0.316 µM, first compound 0.316 µM
[16] = second compound 0.316 µM, first compound 1 µM
[17] = second compound 0.316 µM, first compound 3.16 µM
[18] = second compound 0.316 µM, first compound 10 µM
[19] = second compound 1 µM, first compound 0.0316 µM
[20] = second compound 1 µM, first compound 0.1 µM
[21] = second compound 1 µM, first compound 0.316 µM
[22] = second compound 1 µM, first compound 1 µM
[23] = second compound 1 µM, first compound 3.16 µM
[24] = second compound 1 µM, first compound 10 µM
[25] = second compound 3.16 µM, first compound 0.0316 µM
[26] = second compound 3.16 µM, first compound 0.1 µM
[27] = second compound 3.16 µM, first compound 0.316 µM
[28] = second compound 3.16 µM, first compound 1 µM
[29] = second compound 3.16 µM, first compound 3.16 µM
[30] = second compound 3.16 µM, first compound 10 µM
[31] = second compound 10 µM, first compound 0.0316 µM
[32] = second compound 10 µM, first compound 0.1 µM
[33] = second compound 10 µM, first compound 0.316 µM
[34] = second compound 10 µM, first compound 1 µM
[35] = second compound 10 µM, first compound 3.16 µM
[36] = second compound 10 µM, first compound 10 µM
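Further: spheroids exposed to compounds for 7 days.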
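Wherever viability, T/C is given: 100% = DMSO vehicle control viability.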

COc1ccc([C@@H](O)c2cc(-c3ncnc4cc(N5CCOCC5)ccc34)c(F)cc2Cl)nn1 + CN(C)c1ccc(Nc2c3ccc(NC(=O)CCN4CCCC4)cc3nc3cc(NC(=O)CCN4CCCC4)ccc23)cc1
IC50 (second compound 0.0316 µM): > 10 µM | IC50 (second compound 0.1 µM): > 10 µM | IC50 (second compound 0.316 µM): > 10 µM | IC50 (second compound 1 µM): > 10 µM | IC50 (second compound 3.16 µM): > 10 µM | IC50 (second compound 10 µM): > 10 µM | viability, T/C [1]: 113% | viability, T/C [2]: 130% | viability, T/C [3]: 110% | viability, T/C [4]: 82.1% | viability, T/C [5]: 98% | viability, T/C [6]: 97.7% | viability, T/C [7]: 119% | viability, T/C [8]: 90.7% | viability, T/C [9]: 92.1% | viability, T/C [10]: 148% | viability, T/C [11]: 87.9% | viability, T/C [12]: 127% | viability, T/C [13]: 86.8% | viability, T/C [14]: 108% | viability, T/C [15]: 95.2% | viability, T/C [16]: 92.5% | viability, T/C [17]: 104% | viability, T/C [18]: 85.8% | viability, T/C [19]: 92.6% | viability, T/C [20]: 75.7% | viability, T/C [21]: 72% | viability, T/C [22]: 88.7% | viability, T/C [23]: 57.4% | viability, T/C [24]: 82.2% | viability, T/C [25]: 102% | viability, T/C [26]: 65.1% | viability, T/C [27]: 53.8% | viability, T/C [28]: 66.3% | viability, T/C [29]: 94.1% | viability, T/C [30]: 83.5% | viability, T/C [31]: 74.5% | viability, T/C [32]: 95.2% | viability, T/C [33]: 73.4% | viability, T/C [34]: 86.1% | viability, T/C [35]: 72.4% | viability, T/C [36]: 88.4%

CC(=O)O[C@H]1C(=O)[C@@]2(C)[C@H]([C@H](OC(=O)c3ccccc3)[C@]3(O)C[C@H](OC(=O)[C@H](O)[C@@H](NC(=O)c4ccccc4)c4ccccc4)C(C)=C1C3(C)C)[C@]1(OC(C)=O)CO[C@@H]1C[C@@H]2O + Cc1[nH]c2ccc(F)cc2c1-c1nc2c3cccnc3c3ncccc3c2[nH]1
IC50 (second compound 0.0316 µM): > 10 µM | IC50 (second compound 0.1 µM): > 10 µM | IC50 (second compound 0.316 µM): > 10 µM | IC50 (second compound 1 µM): > 10 µM | IC50 (second compound 3.16 µM): > 10 µM | IC50 (second compound 10 µM): > 10 µM | viability, T/C [1]: 80.1% | viability, T/C [2]: 136% | viability, T/C [3]: 103% | viability, T/C [4]: 82.4% | viability, T/C [5]: 71.2% | viability, T/C [6]: 79.7% | viability, T/C [7]: 87.8% | viability, T/C [8]: 97.5% | viability, T/C [9]: 109% | viability, T/C [10]: 98.9% | viability, T/C [11]: 97% | viability, T/C [12]: 116% | viability, T/C [13]: 91.1% | viability, T/C [14]: 78% | viability, T/C [15]: 70.8% | viability, T/C [16]: 72.3% | viability, T/C [17]: 108% | viability, T/C [18]: 126% | viability, T/C [19]: 116% | viability, T/C [20]: 62.5% | viability, T/C [21]: 58.5% | viability, T/C [22]: 89.3% | viability, T/C [23]: 69.4% | viability, T/C [24]: 109% | viability, T/C [25]: 67.5% | viability, T/C [26]: 77.5% | viability, T/C [27]: 51.1% | viability, T/C [28]: 106% | viability, T/C [29]: 77.8% | viability, T/C [30]: 55.5% | viability, T/C [31]: 54.5% | viability, T/C [32]: 93.7% | viability, T/C [33]: 68.1% | viability, T/C [34]: 74.4% | viability, T/C [35]: 75.5% | viability, T/C [36]: 104%

COc1cc(C2c3cc4c(cc3C(OC3OC5COC(C)OC5C(O)C3O)C3COC(=O)C23)OCO4)cc(OC)c1O (stereo unspecified) + Cc1[nH]c2ccc(F)cc2c1-c1nc2c3cccnc3c3ncccc3c2[nH]1
IC50 (second compound 0.0316 µM): > 10 µM | IC50 (second compound 0.1 µM): > 10 µM | IC50 (second compound 0.316 µM): > 10 µM | IC50 (second compound 1 µM): > 10 µM | IC50 (second compound 3.16 µM): > 10 µM | IC50 (second compound 10 µM): > 10 µM | viability, T/C [1]: 114% | viability, T/C [2]: 99.6% | viability, T/C [3]: 93.8% | viability, T/C [4]: 124% | viability, T/C [5]: 98.2% | viability, T/C [6]: 64.6% | viability, T/C [7]: 127% | viability, T/C [8]: 130% | viability, T/C [9]: 93.2% | viability, T/C [10]: 89.8% | viability, T/C [11]: 55.6% | viability, T/C [12]: 60.4% | viability, T/C [13]: 90.6% | viability, T/C [14]: 109% | viability, T/C [15]: 57.4% | viability, T/C [16]: 86.5% | viability, T/C [17]: 86.9% | viability, T/C [18]: 78.4% | viability, T/C [19]: 88.8% | viability, T/C [20]: 75.8% | viability, T/C [21]: 108% | viability, T/C [22]: 75.9% | viability, T/C [23]: 81% | viability, T/C [24]: 71.4% | viability, T/C [25]: 65.9% | viability, T/C [26]: 76.9% | viability, T/C [27]: 66.9% | viability, T/C [28]: 75% | viability, T/C [29]: 58.6% | viability, T/C [30]: 80.3% | viability, T/C [31]: 69.4% | viability, T/C [32]: 63.4% | viability, T/C [33]: 65.8% | viability, T/C [34]: 68.5% | viability, T/C [35]: 74.8% | viability, T/C [36]: 82.7%
